Patent US4454158A, “Allyl amine MAO inhibitors” (Merrell Toraude et Compagnie, priority 1981, dated 1984)
Like-named read-outs stand apart in the source and are kept apart here.

Experiments:
MAO-B versus MAO-A = details: literature figure; cited from earlier work
MAO-A and MAO-B = details: literature, cited from earlier work
MAO [1] = assay: Inhibition of MAO - In vitro (14C p-tyramine substrate, partially purified rat brain mitochondria); assay type: biochemical; details: tested as hydrochloride salt, read-out: IC50 (MAO inhibitory activity - In vitro)
Source text: (A) The ability of a compound of Formula I or II to inhibit MAO can be determined in vitro by the method of A. Christmas et al, Br. J. Pharmacol. 45, 490 (1972) in partially purified mitochondria from rat brain using ^14 C p-tyramine as the substrate.

depression = details: literature; cited from earlier work
[2] = tested on: heart rate response to p-tyramine; details: rat, in vivo, iv
Method: (§1) The following test procedure can be employed to assess the potential of a compound of Formula I or II for producing the "cheese effect":
(§2) Rats are administered an intravenous injection of the test compound at various dosage levels, and 30 minutes later the rats are challenged with several intravenous or intraduodenal dodes of p-tyramine. The heart rate response is measured.

MAO [3] = assay: Inhibition of MAO - Ex vivo, rat (14C p-tyramine substrate); assay type: in vivo; details: for % Inhibition of MAO - Brain: 18 hr
Method: The ability of a compound of Formula I or II to inhibit MAO can be determined ex vivo by the following procedure:
The test compound is administered intraperitoneally (ip), intravenously (iv), or orally (po) to rats or mice and the animals are killed at various times after treatment. […] MAO activity is determined in the homogenates using ^14 C p-tyramine, as the substrate. […] Selectivity can be determined by repeating the above-described test using either ^14 C 5-hydroxytryptamine (for MAO-A) or ^14 C phenethylamine (for MAO-B) as the substrate for determining the % inhibition

[4] = tested on: heart rate response to p-tyramine; assay: Cheese effect: potentiation of heart-rate response to p-tyramine in rats; details: rat, dose 0.1 (iv), p-tyramine i.d.
Method: as §1, §2

MAO [5] = assay: Time-dependence and reversibility of MAO inhibition (rat brain mitochondria, 14C p-tyramine); assay type: biochemical; details: phosphate buffer pH 7.2, 14C p-tyramine
Method: (B) The compounds of Formula I or II can be tested to determine whether or not the MAO inhibition follows time-dependent kinetics by the procedure described below:
Mitochondria are prepared from rat brain by homogenation in phosphate buffer (0.1 M, pH 7.2) followed by differential centrifugation. The mitochondria are suspended in the same buffer, the test compound is added at the desired concentration, and the system is incubated. At different time intervals, aliquots are taken and MAO activity is measured using ^14 C p-tyramine (a mixed substrate) as the substrate (See A. Christmas, et al, supra). When the compounds shown in Table I were tested according to the above-described procedure, the MAO inhibitory activity increased as a function of time of incubation. The initial rate of decrease of activity increased with increasing concentration of inhibitor.

Question: Which results are given for `C#CCN(C)Cc1ccccc1` [pargyline]?
Answer: Selectivity (ratio of inhibitory activity against MAO-B versus MAO-A) (MAO-B versus MAO-A): 10; preferential inhibition of MAO-A or MAO-B (in words) (MAO-A and MAO-B): MAO-B is preferentially inhibited; dose-dependence of MAO selectivity (in words) (MAO-A and MAO-B; lower vs higher dosages): selective inhibitors at lower dosages, but are not selective inhibitors at higher dosages; IC50 (MAO [1]): 2000 nM; clinical effectiveness as antidepressant (in words) (depression): clinically effective antidepressant agents

Question: What does the source list for `C#CCN(C)CCCOc1ccc(Cl)cc1Cl` [clorgyline, reference compound]?
Answer: Potentiation of heart-rate response to p-tyramine [2]: 5.2 fold; IC50 (MAO [1]): 100 nM; % Inhibition of MAO - Duodenum (MAO [3]; 0.1 mg/kg iv, 2 hr): 87%; % Inhibition of MAO - Heart (MAO [3]; 0.1 mg/kg iv, 2 hr): 84%; % Inhibition of MAO - Brain (MAO [3]; 1.0 mg/kg po): 20%; % Inhibition of MAO - Brain (MAO [3]; 5.0 mg/kg po): 64%; clinical effectiveness as antidepressant (in words) (depression): clinically effective antidepressant agents; Potentiation of heart-rate response to p-tyramine [4]: 5.6 fold

Question: Which IC50 (MAO [1]) does the source give for `NC/C(=C\Cl)c1ccccc1` [(Z)-2-phenyl-3-chloroallylamine, (Z)-2-Phenyl-3-chloroallylamine] here?
Answer: 500000 nM

Question: And the time-dependent inhibitory kinetics (MAO [5])?
Answer: did not show time-dependent inhibitory kinetics
